Data from patent publication US12121614B2, “Delayed release composition for peroral administration” (VICORE PHARMA AB, priority 2020, dated 2024).
Where “and” joins values, the source holds several entries; their conditions need not be identical. Equal values may be shown once. Read-outs that look alike come from different tables or passages of the source.

How the values were obtained:
[1] = Phase I clinical trial: safety and tolerability of C21 in healthy subjects; format: in vivo, human; conditions: healthy male and female subjects, gradual escalation of dose
Experimental: A Phase I clinical trial was conducted to evaluate the safety, tolerability, and pharmacokinetics of C21 in healthy male and female subjects. The study design allowed a gradual escalation of dose with intensive clinical data and PK monitoring to ensure the safety and wellbeing of subjects.
The study was designed and conducted in accordance with the CRO's standard operating procedures (SOPs), which comply with the ethical principles laid down in the International Council for Harmonisation (ICH) Good Clinical Practice (GCP) guidance as required by the major regulatory authorities, and in accordance with the Declaration of Helsinki as amended by the 48th General Assembly in October 1996.

[2] = Phase I clinical trial, food effect part: pharmacokinetics of C21 fed vs fasted; format: in vivo, human; conditions: for AUC(0-t) / AUC(0-inf) / Cmax / Vd/F / half-life / Tmax: both sexes, human, plasma; for Tmax: read-out: tmax, Median
Experimental: In addition, the effect of food on the pharmacokinetics (PK) of C21 was investigated in an open label manner in 10 male and female subjects at a single oral dose of 75 mg.
Subjects were to receive two single doses of 75 mg of C21 at least 3 days apart in a randomised fashion either in fasted or in fed state. A Food and Drug Administration (FDA)-recommended high-fat breakfast was used to investigate maximum effects.
In the food effect part of the study, the subjects' ages ranged from 22 to 44 years with a median age of 36.0 years. Most of the subjects were Caucasian (9 (90.0% of) subjects) and male (8 (80.0% of) subjects). The mean (SD) BMI of overall subjects was 23.96 (2.223) kg/m^2.
C21 sodium salt as a pre-frozen oral solution (comprising 2.5 mg/mL C21 sodium salt sodium salt dissolved in an aqueous carbonate buffer) with a composition as shown in Table 1 below.
Plasma concentrations below the lower limit of quantification (LLOQ) were presented as below the lower limit of quantification (BLQ). Plasma concentrations for C21 were summarised by study part, dose cohort and nominal time point.
Pharmacokinetic parameters were calculated by non-compartmental analysis methods from the concentration-time data using Phoenix® WinNonlin® (Version 8.0) or higher following these guidelines: • Actual sampling times relative to dosing rather than nominal times were used in the calculation of all derived pharmacokinetic parameters. • There was no imputation of missing data. • Any subjects with missing concentration data were included in the PK analysis set provided that at least Cmax and AUC(0-t) could be reliably calculated.
All BLQ values pre-dose and in the absorption phase prior to the first quantifiable concentration were substituted by zeros. Single BLQs that fell between two evaluable concentrations were substituted by missing, before the calculation of the PK variables. Consecutive BLQs that fell between evaluable concentrations were substituted by zero, before the calculation of the PK variables. Terminal BLQ values were disregarded.
Bioequivalence of PK parameters from the open label food effect arm were determined by constructing 90% confidence intervals around the estimated difference between the Test and Reference treatments using a mixed effects model based on natural log transformed data. The mixed effects model was implemented using SAS Proc Mixed, with REML estimation method and Kenward-Roger degrees of freedom algorithm.
Natural logarithm transformed AUC(0-inf) (if data permitted), AUC(0-24) and Cmax were analysed using a mixed effects model with sequence, period and treatment as fixed effects and subject within sequence as a random effect. Estimates of the mean differences (Test-Reference) and corresponding 90% confidence intervals were obtained from the model. The estimated mean differences and 90% confidence intervals for the differences were exponentiated to provide estimates of the ratio of geometric means (Test/Reference) and 90% confidence intervals for the ratios. C21 in the fasted state is the Reference treatment and C21 in the fed state is the Test treatment.
The comparisons assessing the food effect (bioequivalence) were used to assess the effect of food on the rate and extent of absorption of C21 administered under fasted and fed conditions with estimates of the mean differences as well as corresponding 90% confidence intervals being presented.
The model is a mixed analysis of variance (ANOVA) model with a fixed term for sequence, period, treatment, and a random effect for subject within sequence.

[3] = 75 mg, fed (Test) vs fasted (Reference)
[4] = 75 mg, higher for the fed treatment
[5] = single oral dose 75 mg, Fasted, N = 9
[6] = single oral dose 75 mg, Fed, N = 10

AUC(0-24), Geometric Mean Ratio (Fed:Fasted) [2, 3]: 0.45 and 0.449 | AUC(0-inf), Geometric Mean Ratio (Fed:Fasted) [2, 3]: 0.45 and 0.449 | Cmax, Geometric Mean Ratio (Fed:Fasted) [2, 3]: 0.16 and 0.155 | CL/F, fed treatment compared to fasted treatment [2, 4]: approximately 2 fold | VZ/F, fed treatment compared to fasted treatment [2, 4]: 3 fold | food effect on pharmacokinetics ([2]; Phase I clinical trial in healthy subjects): a pronounced food effect was observed | AUC(0-t) ([2]; oral, 75 mg, Fasted (N = 9), mixed ANOVA model, read-out: AUC(0-24), Geometric Mean (95% CI), mixed effects model): 1710 ng·h/mL | AUC(0-inf) ([2]; oral, 75 mg, Fasted (N = 9), mixed ANOVA model, read-out: AUC(0-inf), Geometric Mean (95% CI), mixed effects model): 1710 ng·h/mL | Cmax ([2]; oral, 75 mg, Fasted (N = 9), mixed ANOVA model, read-out: Cmax, Geometric Mean (95% CI), mixed effects model): 1700 ng/mL | AUC(0-t) ([2]; oral, 75 mg, Fed (N = 10), mixed ANOVA model, read-out: AUC(0-24), Geometric Mean (95% CI), mixed effects model): 768 ng·h/mL | AUC(0-inf) ([2]; oral, 75 mg, Fed (N = 10), mixed ANOVA model, read-out: AUC(0-inf), Geometric Mean (95% CI), mixed effects model): 769 ng·h/mL | Cmax ([2]; oral, 75 mg, Fed (N = 10), mixed ANOVA model, read-out: Cmax, Geometric Mean (95% CI), mixed effects model): 263 ng/mL | Cmax ([2]; po, 75 mg, single oral dose 75 mg, Fasted, N = 9, plasma, read-out: Cmax, Arithmetic Mean): 1810 ng/mL | Cmax ([2]; po, 75 mg, single oral dose 75 mg, Fasted, N = 9, plasma, read-out: Cmax, Geometric Mean): 1710 ng/mL | AUC(0-t) ([2]; po, 75 mg, single oral dose 75 mg, Fasted, N = 9, read-out: AUC(0-6), Arithmetic Mean): 1850 ng·h/mL | AUC(0-t) ([2]; po, 75 mg, single oral dose 75 mg, Fasted, N = 9, read-out: AUC(0-6), Geometric Mean): 1760 ng·h/mL | AUC(0-t) ([2]; po, 75 mg, single oral dose 75 mg, Fasted, N = 9, read-out: AUC(0-12), Arithmetic Mean): 1860 ng·h/mL | AUC(0-t) ([2]; po, 75 mg, single oral dose 75 mg, Fasted, N = 9, read-out: AUC(0-12), Geometric Mean): 1770 ng·h/mL | AUC(0-t) ([2]; po, 75 mg, single oral dose 75 mg, Fasted, N = 9, read-out: AUC(0-24), Arithmetic Mean): 1860 ng·h/mL | AUC(0-inf) ([2]; po, 75 mg, single oral dose 75 mg, Fasted, N = 9, read-out: AUC(0-inf), Arithmetic Mean): 1860 ng·h/mL | AUC(0-inf) ([2]; po, 75 mg, single oral dose 75 mg, Fasted, N = 9, read-out: AUC(0-inf), Geometric Mean): 1770 ng·h/mL | AUC(0-t) ([2]; po, 75 mg, single oral dose 75 mg, Fasted, N = 9, read-out: AUC(0-t), Arithmetic Mean): 1840 ng·h/mL | AUC(0-t) ([2]; po, 75 mg, single oral dose 75 mg, Fasted, N = 9, read-out: AUC(0-t), Geometric Mean): 1750 ng·h/mL | Vd/F ([2]; po, 75 mg, single oral dose 75 mg, Fasted, N = 9, read-out: Vz/F, Arithmetic Mean): 36.6 L | Vd/F ([2]; po, 75 mg, single oral dose 75 mg, Fasted, N = 9, read-out: Vz/F, Geometric Mean): 34.8 L | half-life ([2]; po, 75 mg, single oral dose 75 mg, Fasted, N = 9, read-out: t1/2, Arithmetic Mean): < 60 min | half-life ([2]; po, 75 mg, single oral dose 75 mg, Fasted, N = 9, read-out: t1/2, Geometric Mean (converted)): 34.1 min | Tmax ([2]; po, 75 mg, single oral dose 75 mg, Fasted, N = 9): 40.2 min | Cmax ([2]; po, 75 mg, single oral dose 75 mg, Fed (high-fat breakfast), N = 10, plasma, read-out: Cmax, Arithmetic Mean): 269 ng/mL | Cmax ([2]; po, 75 mg, single oral dose 75 mg, Fed (high-fat breakfast), N = 10, plasma, read-out: Cmax, Geometric Mean): 263 ng/mL | AUC(0-t) ([2]; po, 75 mg, single oral dose 75 mg, Fed, N = 10, read-out: AUC(0-6), Arithmetic Mean): 747 ng·h/mL | AUC(0-t) ([2]; po, 75 mg, single oral dose 75 mg, Fed, N = 10, read-out: AUC(0-6), Geometric Mean): 732 ng·h/mL | AUC(0-t) ([2]; po, 75 mg, single oral dose 75 mg, Fed, N = 10, read-out: AUC(0-12), Arithmetic Mean): 790 ng·h/mL | AUC(0-t) ([2]; po, 75 mg, single oral dose 75 mg, Fed, N = 10, read-out: AUC(0-12), Geometric Mean): 767 ng·h/mL | AUC(0-t) ([2]; po, 75 mg, single oral dose 75 mg, Fed, N = 10, read-out: AUC(0-24), Arithmetic Mean): 792 ng·h/mL | AUC(0-t) ([2]; po, 75 mg, single oral dose 75 mg, Fed, N = 10, read-out: AUC(0-24), Geometric Mean): 768 ng·h/mL | AUC(0-inf) ([2]; po, 75 mg, single oral dose 75 mg, Fed, N = 10, read-out: AUC(0-inf), Arithmetic Mean): 792 ng·h/mL | AUC(0-inf) ([2]; po, 75 mg, single oral dose 75 mg, Fed, N = 10, read-out: AUC(0-inf), Geometric Mean): 768 ng·h/mL | AUC(0-t) ([2]; po, 75 mg, single oral dose 75 mg, Fed, N = 10, read-out: AUC(0-t), Arithmetic Mean): 767 ng·h/mL | AUC(0-t) ([2]; po, 75 mg, single oral dose 75 mg, Fed, N = 10, read-out: AUC(0-t), Geometric Mean): 742 ng·h/mL | Vd/F ([2]; po, 75 mg, single oral dose 75 mg, Fed, N = 10, read-out: Vz/F, Arithmetic Mean): 120 L | Vd/F ([2]; po, 75 mg, single oral dose 75 mg, Fed, N = 10, read-out: Vz/F, Geometric Mean): 118 L | half-life ([2]; po, 75 mg, single oral dose 75 mg, Fed, N = 10, read-out: t1/2, Arithmetic Mean): < 60 min | half-life ([2]; po, 75 mg, single oral dose 75 mg, Fed, N = 10, read-out: t1/2, Geometric Mean (converted)): 50.1 min | Tmax ([2]; po, 75 mg, single oral dose 75 mg, Fed, N = 10): 75.6 min | % AUCex, Arithmetic Mean [2, 5]: 0.89% | CL/F, Arithmetic Mean [2, 5]: 44.52 L/h | CL/F, Geometric Mean [2, 5]: 42.44 L/h | Cav, Arithmetic Mean [2, 5]: 77.4 ng/mL | Cav, Geometric Mean [2, 5]: 73.6 ng/mL | Cmax, Geometric Mean ([2]; single oral dose 75 mg, Fed (high-fat breakfast), N = 10, plasma): 263.2 ng/mL | % AUCex, Arithmetic Mean [2, 6]: 3.5% | AUC(0-12), Geometric Mean [2, 6]: 767.4 ng·h/mL | CL/F, Arithmetic Mean [2, 6]: 100.3 L/h | CL/F, Geometric Mean [2, 6]: 97.59 L/h | Cav, Arithmetic Mean [2, 6]: 33.0 ng/mL | Cav, Geometric Mean [2, 6]: 32.0 ng/mL
SMILES: CCCCOC(=O)NS(=O)(=O)c1sc(CC(C)C)cc1-c1ccc(Cn2ccnc2)cc1 [C21, N-butyloxycarbonyl-3-(4-imidazol-1-ylmethylphenyl)-5-iso-butylthiophene-2-sulfonamide]
safety and tolerability [1]: safe and generally well tolerated | serious adverse events [1]: No serious adverse events
